# Measured values from patent US10966426B2, “Herbicidal compositions comprising phenylpyrimidines” (BASF SE, priority 2016, dated 2021).
# Values joined by “and” are separate entries in the source; they are usually repeats but may differ in a detail not shown here. Identical values can stand only once.
# Legend:
# Assay type in all cases: in vivo
# [1] = system: Papaver rhoeas; assay: greenhouse post-emergence treatment, PAPRH; conditions: PAPRH
# How it was run: (§1)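 Seeds sown per species in pots of loamy sand; seedlings either grown in place or transplanted days before treatment. Post-emergence spray of water-based liquor at 3–15 cm height. Injury rated 0–100 over 2 to 4 weeks.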
# [2] = system: Poa annua; assay: greenhouse post-emergence treatment, POAAN; conditions: POAAN
# How it was run: (§2)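 Test plants reached 3 to 15 cm before being sprayed with components A, B and, where applicable, C as emulsion concentrates in water. After 2 to 4 weeks at species-dependent temperatures, injury was rated 0–100.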
# [3] = system: Alopecurus myosuroides; assay: greenhouse post-emergence treatment, ALOMY; conditions: ALOMY
# How it was run: (§3)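 Seeds sown per species in loamy sand substrate (about 3.0% humus); some raised separately and transplanted shortly before treatment. Treatments applied in water post-emergence, plants held at 10-25° C. or 20-35° C. by species, then scored after 2 to 4 weeks, where 100 means total kill and 0 no damage.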
# [4] = system: Brachiaria decumbens; assay: greenhouse post-emergence treatment, BRADC; conditions: BRADC
# How it was run: as §2
# [5] = system: Bromus sterilis; assay: greenhouse post-emergence treatment, BROST
# How it was run: as §3
# [6] = system: Polygonum convolvulus; assay: greenhouse post-emergence treatment, POLCO; conditions: POLCO, solo Ex. 5 62.5 gai/ha
# How it was run: as §1
# [7] = system: Setaria viridis; assay: greenhouse post-emergence treatment, SETVI; conditions: SETVI
# How it was run: as §3
# [8] = system: Ambrosia elatior; assay: greenhouse post-emergence treatment, AMBEL; conditions: 20 DAT, AMBEL
# How it was run: as §2
# [9] = Table X8, 20 DAT, solo Ex. 5 125 gai/ha
# [10] = Table X8, 20 DAT, solo Ex. 5 250 gai/ha
smiles,measurement,setting,value
O=C(O)c1nc(C2CC2)ncc1-c1ccccc1Cl [Ex. 5],% activity,"[1]; solo Ex. 5 62.5 gai/ha, 21 DAT",0%
same,% activity,"[1]; solo Ex. 5 125 gai/ha, 21 DAT",10%
same,% activity,"[1]; solo Ex. 5 250 gai/ha, 20 DAT",65%
same,% activity,"[1]; solo Ex. 5 250 gai/ha, 21 DAT",65%
same,% activity,"[1]; solo, 250 gai/ha, 20 DAT",70% and 75%
same,% activity,"[2]; solo Ex. 5 62.5 gai/ha, 20 DAT",80%
same,% activity,"[2]; solo Ex. 5 125 gai/ha, 20 DAT",80%
same,% activity,"[2]; solo Ex. 5 125 gai/ha, 21 DAT",85%
same,% activity,"[2]; solo Ex. 5 250 gai/ha, 21 DAT",85%
same,% activity,[2]; [9],90%
same,% activity,[2]; [10],90%
same,% activity,"[2]; solo, 62.5 gai/ha, 20 DAT",85%
same,% activity,"[2]; solo, 125 gai/ha, 20 DAT",85%
same,% activity,"[2]; solo, 250 gai/ha, 20 DAT",85%
same,"% activity, solo application","[3]; 62.5 gai/ha, 20 DAT, Table X3",75%
same,"% activity, solo application","[3]; 125 gai/ha, 20 DAT, Table X7",80%
same,"% activity, solo application","[3]; 250 gai/ha, 20 DAT, Table X5",85%
same,"% activity, solo application","[3]; 250 gai/ha, 20 DAT, Table X7",75%
same,% activity,"[3]; solo Ex. 5 15 gai/ha, 20 DAT, 2nd series of rows",80%
same,% activity,"[3]; solo Ex. 5 62.5 gai/ha, 20 DAT",70% and 68%
same,% activity,"[3]; solo Ex. 5 62.5 gai/ha, 20 DAT, 2nd series of rows",70%
same,% activity,"[3]; solo Ex. 5 125 gai/ha, 20 DAT",70%
same,% activity,"[3]; solo Ex. 5 250 gai/ha, 20 DAT",73%
same,% activity,"[3]; solo Ex. 5 250 gai/ha, 20 DAT, 2nd series of rows",80%
same,% activity,"[3]; solo Ex. 5 250 gai/ha, 21 DAT",80%
same,% activity,"[3]; solo Ex. 5 500 gai/ha, 20 DAT",78%
same,% activity,"[3]; solo Ex. 5 500 gai/ha, 20 DAT, 2nd series of rows",80%
same,% activity,"[3]; Table X12, 20 DAT, solo Ex. 5 31.25 gai/ha",70%
same,% activity,"[3]; Table X12, 20 DAT, solo Ex. 5 62.5 gai/ha",70%
same,% activity,"[3]; Table X12, 20 DAT, solo Ex. 5 125 gai/ha",80%
same,% activity,"[3]; solo, 62.5 gai/ha, 20 DAT",75%
same,% activity,"[3]; solo, 125 gai/ha, 20 DAT",80% and 75%
same,% activity,"[3]; solo, 250 gai/ha, 20 DAT",80%
same,"% activity, solo application","[4]; 125 gai/ha, 20 DAT, Table X5",50%
same,"% activity, solo application","[4]; 125 gai/ha, 20 DAT, Table X7",65%
same,"% activity, solo application","[4]; 250 gai/ha, 20 DAT, Table X3",60%
same,% activity,"[4]; 20 DAT, solo Ex. 5 62.5 gai/ha",35%
same,% activity,"[4]; 20 DAT, solo Ex. 5 125 gai/ha",40%
same,% activity,"[4]; 20 DAT, solo Ex. 5 125 gai/ha (Table X66)",40%
same,% activity,"[4]; 20 DAT, solo Ex. 5 250 gai/ha",60%
same,% activity,"[4]; 21 DAT, solo Ex. 5 125 gai/ha",60%
same,% activity,"[4]; 21 DAT, solo Ex. 5 250 gai/ha",70%
same,% activity,"[4]; solo Ex. 5 62.5 gai/ha, 20 DAT",30% and 45%
same,% activity,"[4]; solo Ex. 5 125 gai/ha, 20 DAT",50%
same,% activity,"[4]; solo Ex. 5 250 gai/ha, 20 DAT",60%
same,% activity,"[4]; solo, 62.5 gai/ha, 20 DAT",45%
same,% activity,"[4]; solo, 250 gai/ha, 20 DAT",60%
same,"% activity, solo application","[5]; 250 gai/ha, 20 DAT, BROST, Table X3",80%
same,% activity,"[5]; BROST, 20 DAT, solo Ex. 5 62.5 gai/ha",35%
same,% activity,"[5]; BROST, 20 DAT, solo Ex. 5 250 gai/ha",80%
same,% activity,"[5]; BROST, solo Ex. 5 62.5 gai/ha, 20 DAT",30% and 53%
same,% activity,"[5]; BROST, solo Ex. 5 125 gai/ha, 20 DAT",65% and 73%
same,% activity,"[5]; BROST, solo Ex. 5 250 gai/ha, 20 DAT",70% and 85%
same,% activity,"[5]; BROST, solo Ex. 5 500 gai/ha, 20 DAT",90%
same,% activity,"[5]; solo, BROST, 125 gai/ha, 20 DAT",65%
same,% activity,"[5]; solo, BROST, 250 gai/ha, 20 DAT",70% and 80%
same,% activity,[6]; 20 DAT,60%
same,% activity,[6]; 21 DAT,90%
same,"% activity, solo application","[7]; 62.5 gai/ha, 20 DAT, Table X3",35%
same,"% activity, solo application","[7]; 250 gai/ha, 20 DAT, Table X3",60%
same,"% activity, solo application","[7]; 250 gai/ha, 20 DAT, Table X4",50%
same,"% activity, solo application","[7]; 250 gai/ha, 20 DAT, Table X7",60%
same,% activity,"[7]; Ex. 5 solo, 62.5 gai/ha, 20 DAT",55%
same,% activity,"[7]; 20 DAT, solo Ex. 5 62.5 gai/ha",30%
same,% activity,"[7]; 20 DAT, solo Ex. 5 125 gai/ha",40%
same,% activity,"[7]; 21 DAT, solo Ex. 5 125 gai/ha",70%
same,% activity,"[7]; solo Ex. 5 62.5 gai/ha, 20 DAT",35% and 30% and 48%
same,% activity,"[7]; solo Ex. 5 62.5 gai/ha, 21 DAT",35%
same,% activity,"[7]; solo Ex. 5 250 gai/ha, 20 DAT",65%
same,% activity,[7]; [9],30%
same,% activity,[7]; [10],30%
same,% activity,"[7]; solo, 62.5 gai/ha, 20 DAT",20% and 35%
same,% activity,"[7]; solo, 125 gai/ha, 20 DAT",40%
same,% activity,"[7]; solo, 250 gai/ha, 20 DAT",50%
same,"% activity, solo application","[8]; 125 gai/ha, Table X5",80%
same,% activity,[8]; solo Ex. 5 62.5 gai/ha,80%
same,% activity,[8]; solo Ex. 5 125 gai/ha,80%
same,% activity,"[8]; solo, 62.5 gai/ha",85%
